Measured values taken from US11566007B2, “Ras inhibitors” (Revolution Medicines, Inc., priority 2019, dated 2023).
“And” between values parts separate entries of the source, which are not always exact repeats. Equal values may be shown once.

How the values were obtained:
Type in all cases: biochemical
[1] = molecular target: KRAS G12V (Homo sapiens (Human), UniProt P01116+P62937, G12V); test: Ras-Raf (BRAF RBD) disruption / FRET / MOA assay, KRAS G12V; details: read-out: IC50* KRAS G12V FRET data
Summary of the method: (§1)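 Compound-driven ternary complex of nucleotide-loaded Ras with cyclophilin A, disrupting BRAF RBD binding. 10-point 3-fold dilution from 30 μM final, 3 h at 25° C, then anti-His Eu-W1024 (10 nM) and anti-GST allophycocyanin (50 nM) for 1.5 h. IC50 from TR-FRET ratio decrease versus DMSO.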

[2] = molecular target: K-Ras G12C (Homo sapiens (Human), UniProt P01116+P62937, G12C); test: Ras-Raf (BRAF RBD) disruption / FRET / MOA assay, KRAS G12C; details: KRAS G12C; Ras-Raf disruption/FRET/MOA assay; read-out: IC50* KRAS G12C FRET data
Summary of the method: as §1

[3] = molecular target: KRAS G13D (Homo sapiens (Human), UniProt P01116+P62937, G13D); test: Ras-Raf (BRAF RBD) disruption / FRET / MOA assay, KRAS G13D; details: read-out: IC50* KRAS G13D FRET data
Summary of the method: as §1

[4] = molecular target: KRAS G12S (Homo sapiens (Human), UniProt P01116+P62937, G12S); test: Ras-Raf (BRAF RBD) disruption / FRET / MOA assay, KRAS G12S; details: Ras-Raf disruption/FRET/MOA assay; class symbols; read-out: KRAS G12S FRET data IC50
Summary of the method: as §1

[5] = molecular target: NRAS G12C (Homo sapiens (Human), UniProt P01111+P62937, G12C); test: Ras-Raf (BRAF RBD) disruption / FRET / MOA assay, NRAS G12C; details: read-out: IC50* NRAS G12C FRET data
Summary of the method: as §1

[6] = molecular target: KRAS WT (Homo sapiens (Human), UniProt P01116+P62937); test: Ras-Raf (BRAF RBD) disruption / FRET / MOA assay, KRAS WT; details: read-out: IC50* KRAS WT FRET data
Summary of the method: as §1

[7] = molecular target: NRAS Q61R (Homo sapiens (Human), UniProt P01111+P62937, Q61R); test: Ras-Raf (BRAF RBD) disruption / FRET / MOA assay, NRAS Q61R; details: NRAS Q61R; Ras-Raf disruption/FRET/MOA assay; read-out: IC50* NRAS Q61R FRET data
Summary of the method: (§2)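 Compounds (30 μM top final, 10-point 3-fold dilutions) incubated 3 h at 25° C with nucleotide-loaded Ras, cyclophilin A and BRAF RBD. Detection with 10 nM anti-His Eu-W1024 and 50 nM anti-GST allophycocyanin over another 1.5 h. Lowered TR-FRET ratio relative to DMSO wells gives IC50.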

[8] = molecular target: NRAS WT (Homo sapiens (Human), UniProt P01111+P62937); test: Ras-Raf (BRAF RBD) disruption / FRET / MOA assay, NRAS WT; details: read-out: IC50* NRAS WT FRET data
Summary of the method: as §2

[9] = molecular target: K-Ras G13C (Homo sapiens (Human), UniProt P01116+P62937, G13C); test: Ras-Raf (BRAF RBD) disruption / FRET / MOA assay, KRAS G13C; details: KRAS G13C; Ras-Raf disruption/FRET/MOA assay; read-out: IC50* KRAS G13C FRET data
Summary of the method: as §1

[10] = molecular target: KRAS G12D (Homo sapiens (Human), UniProt P01116+P62937, G12D); test: Ras-Raf (BRAF RBD) disruption / FRET / MOA assay, KRAS G12D; details: Ras-Raf disruption/FRET/MOA assay; class symbols; read-out: KRAS G12D FRET data IC50
Summary of the method: as §1

Chain of KRAS G12D (P01116-2 other isoform, or with tags, fused parts or gaps G12D): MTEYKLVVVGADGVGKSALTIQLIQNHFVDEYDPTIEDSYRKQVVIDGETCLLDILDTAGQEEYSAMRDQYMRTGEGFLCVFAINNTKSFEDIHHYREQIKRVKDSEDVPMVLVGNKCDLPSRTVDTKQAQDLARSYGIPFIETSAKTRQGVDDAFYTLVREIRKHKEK
Chain of KRAS G12D (P62937 whole entry): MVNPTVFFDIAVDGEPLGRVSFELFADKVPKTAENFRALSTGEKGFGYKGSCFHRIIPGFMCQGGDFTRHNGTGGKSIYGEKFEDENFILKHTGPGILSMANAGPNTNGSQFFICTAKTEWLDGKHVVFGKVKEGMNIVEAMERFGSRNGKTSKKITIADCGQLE
Chain of NRAS WT (P01111 whole entry): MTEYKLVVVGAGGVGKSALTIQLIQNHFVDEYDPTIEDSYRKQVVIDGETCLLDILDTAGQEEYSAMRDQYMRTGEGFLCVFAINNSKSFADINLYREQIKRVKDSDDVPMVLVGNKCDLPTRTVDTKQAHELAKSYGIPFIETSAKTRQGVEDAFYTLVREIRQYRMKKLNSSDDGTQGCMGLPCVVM
Chain of NRAS WT (P62937 whole entry): as the sequence (P62937 whole entry) above
Chain of K-Ras G12C (P01116-2 other isoform, or with tags, fused parts or gaps G12C): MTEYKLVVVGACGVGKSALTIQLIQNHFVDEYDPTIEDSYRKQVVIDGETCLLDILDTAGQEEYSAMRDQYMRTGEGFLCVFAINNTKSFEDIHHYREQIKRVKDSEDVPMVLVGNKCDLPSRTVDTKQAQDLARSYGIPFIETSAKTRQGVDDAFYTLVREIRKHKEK
Chain of K-Ras G12C (P62937 whole entry): as the sequence (P62937 whole entry) above
Chain of KRAS G12V (P01116-2 other isoform, or with tags, fused parts or gaps G12V): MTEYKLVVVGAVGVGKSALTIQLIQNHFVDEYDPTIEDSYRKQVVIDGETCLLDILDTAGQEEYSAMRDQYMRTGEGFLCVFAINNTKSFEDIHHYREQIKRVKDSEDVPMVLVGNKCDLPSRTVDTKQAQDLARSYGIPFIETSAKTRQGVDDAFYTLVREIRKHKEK
Chain of KRAS G12V (P62937 whole entry): as the sequence (P62937 whole entry) above
Chain of NRAS G12C (P01111 whole entry G12C): as the sequence (P01111 whole entry) above, with G12C counted along it
Chain of NRAS G12C (P62937 whole entry): as the sequence (P62937 whole entry) above
Chain of KRAS WT (P01116-2 other isoform, or with tags, fused parts or gaps): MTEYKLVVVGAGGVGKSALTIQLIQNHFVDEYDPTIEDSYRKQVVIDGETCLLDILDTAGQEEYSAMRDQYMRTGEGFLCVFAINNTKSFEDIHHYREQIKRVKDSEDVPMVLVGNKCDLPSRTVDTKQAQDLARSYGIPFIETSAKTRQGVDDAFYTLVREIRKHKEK
Chain of KRAS WT (P62937 whole entry): as the sequence (P62937 whole entry) above
Chain of KRAS G12S (P01116-2 other isoform, or with tags, fused parts or gaps G12S): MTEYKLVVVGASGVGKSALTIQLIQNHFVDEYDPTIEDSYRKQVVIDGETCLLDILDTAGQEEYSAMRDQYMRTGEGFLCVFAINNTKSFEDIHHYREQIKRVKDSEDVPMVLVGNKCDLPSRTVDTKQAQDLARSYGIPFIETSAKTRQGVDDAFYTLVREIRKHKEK
Chain of KRAS G12S (P62937 whole entry): as the sequence (P62937 whole entry) above
Chain of KRAS G13D (P01116-2 other isoform, or with tags, fused parts or gaps G13D): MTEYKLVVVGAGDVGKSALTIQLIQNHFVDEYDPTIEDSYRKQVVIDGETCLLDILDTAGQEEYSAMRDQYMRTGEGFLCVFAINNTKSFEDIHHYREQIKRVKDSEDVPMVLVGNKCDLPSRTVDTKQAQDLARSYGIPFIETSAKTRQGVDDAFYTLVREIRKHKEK
Chain of KRAS G13D (P62937 whole entry): as the sequence (P62937 whole entry) above
Chain of K-Ras G13C (P01116-2 other isoform, or with tags, fused parts or gaps G13C): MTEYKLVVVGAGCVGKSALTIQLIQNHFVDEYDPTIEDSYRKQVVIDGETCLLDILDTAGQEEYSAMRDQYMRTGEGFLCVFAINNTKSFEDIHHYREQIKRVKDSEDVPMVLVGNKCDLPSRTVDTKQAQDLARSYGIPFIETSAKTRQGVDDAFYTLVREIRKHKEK
Chain of K-Ras G13C (P62937 whole entry): as the sequence (P62937 whole entry) above
Chain of NRAS Q61R (P01111 whole entry Q61R): as the sequence (P01111 whole entry) above, with Q61R counted along it
Chain of NRAS Q61R (P62937 whole entry): as the sequence (P62937 whole entry) above

Row | Structure (SMILES) | IC50 [1] | IC50 [2] | IC50 [3] | IC50 [4] | IC50 [5] | IC50 [6] | IC50 [7] | IC50 [8] | IC50 [9] | IC50 [10]
1 | C=CC(=O)N1CCN(C(=O)N(C)[C@H](C(=O)N[C@H]2Cc3nc(cs3)-c3ccc4c(c3)c(c(-c3cccnc3[C@H](C)OC)n4CC)CC(C)(C)COC(=O)[C@@H]3CCCN(N3)C2=O)C(C)C)[C@H]2CC[C@H]21 (atropisomer, axis not shown) [Example A734] | 10 to 100 nM | 10 to 100 nM | 100 to 1000 nM | 10 to 100 nM | 10 to 100 nM | 10 to 100 nM | 10 to 100 nM | 10 to 100 nM | 10 to 100 nM | 100 to 1000 nM
2 | C=CC(=O)N1CC2(C1)OCCCN2C(=O)N(C)[C@H](C(=O)N[C@H]1Cc2nc(cs2)-c2ccc3c(c2)c(c(-c2cccnc2[C@H](C)OC)n3CC)CC(C)(C)COC(=O)[C@@H]2CCCN(N2)C1=O)C(C)C (atropisomer, axis not shown) [Example A735, 2-acryloyl-N-((2S)-1-(((6^3S,4S,Z)-1^1-ethyl-1^2-(2-((S)-1-methoxyethyl)pyridin-3-yl)-10,10-dimethyl-5,7-dioxo-6^1,6^2,6^3,6^4,6^5,6^6-hexahydro-1^1H-8-oxa-2(4,2)-thiazola-1(5,3)-indola-6(1,3)-pyridazinacycloundecaphane-4-yl)amino)-3-methyl-1-oxobutan-2-yl)-N-methyl-5-oxa-2,9-diazaspiro[3.5]nonane-9-carboxamide] | > 10000 nM | < 10 nM | > 10000 nM | > 10000 nM | < 10 nM | 1000 to 10000 nM | > 10000 nM | 1000 to 10000 nM | 1000 to 10000 nM | > 10000 nM
3 | C=CC(=O)N(C)[C@@H]1C[C@H]1N(C)C(=O)N(C)[C@H](C(=O)N[C@H]1Cc2nc(cs2)-c2ccc3c(c2)c(c(-c2cccnc2[C@H](C)OC)n3CC)CC(C)(C)COC(=O)[C@@H]2CCCN(N2)C1=O)C(C)C (atropisomer, axis not shown) [Example A739] | 1000 to 10000 nM | 100 to 1000 nM | 1000 to 10000 nM | 1000 to 10000 nM | 100 to 1000 nM | 100 to 1000 nM | 1000 to 10000 nM | 100 to 1000 nM | 100 to 1000 nM | 1000 to 10000 nM
4 | C=CC(=O)N1CC[C@H](C(=O)N(C)[C@H](C(=O)N[C@H]2Cc3cccc(c3)-c3ccc4c(c3)c(c(-c3cnccc3[C@H](C)OC)n4CC)CC(C)(C)COC(=O)[C@@H]3CCCN(N3)C2=O)C(C)C)C1 (single isomer, unassigned) [Example A115] | 1000 to 10000 nM | 10 to 100 nM and 100 to 1000 nM | > 10000 nM | 1000 to 10000 nM | 10 to 100 nM and 100 to 1000 nM | 1000 to 10000 nM | 1000 to 10000 nM | 1000 to 10000 nM | 1000 to 10000 nM | > 10000 nM
5 | C=CC(=O)N1CC[C@H](C(=O)N(C)[C@H](C(=O)N[C@H]2Cc3cc(O)cc(c3)-c3ccc4c(c3)c(c(-c3cc(N5CC(OC)C5)ccn3)n4CC)CC(C)(C)COC(=O)[C@@H]3CCCN(N3)C2=O)C(C)C)C1 [Example A104] | 1000 to 10000 nM | 10 to 100 nM | 1000 to 10000 nM | 1000 to 10000 nM | 10 to 100 nM | 1000 to 10000 nM | 1000 to 10000 nM | 1000 to 10000 nM | 1000 to 10000 nM | > 10000 nM
6 | C=CC(=O)N1CC[C@H](C(=O)N(C)[C@H](C(=O)N[C@H]2Cc3cc(O)cc(c3)-c3ccc4c(c3)c(c(-c3cc(C#N)cnc3COC)n4CC)CC(C)(C)COC(=O)[C@@H]3CCCN(N3)C2=O)C(C)C)C1 [Example A105] | 100 to 1000 nM | 10 to 100 nM | 100 to 1000 nM | 100 to 1000 nM | 10 to 100 nM | 100 to 1000 nM | 100 to 1000 nM | 100 to 1000 nM | 100 to 1000 nM | 1000 to 10000 nM
7 | C=CC(=O)N1CC[C@H](C(=O)N(C)[C@H](C(=O)N[C@H]2Cc3cc(O)cc(c3)-c3ccc4c(c3)c(c(-c3cn(C)cn3)n4CC)CC(C)(C)COC(=O)[C@@H]3CCCN(N3)C2=O)C(C)C)C1 [Example A113] | 1000 to 10000 nM | 100 to 1000 nM | > 10000 nM | 1000 to 10000 nM | 100 to 1000 nM | > 10000 nM | > 10000 nM | > 10000 nM | > 10000 nM | > 10000 nM
8 | C=CS(=O)(=O)N1CC[C@H](C(=O)N(C)[C@H](C(=O)N[C@H]2Cc3cc(O)cc(c3)-c3ccc4c(c3)c(c(-c3cncnc3)n4CC)CC(C)(C)COC(=O)[C@@H]3CCCN(N3)C2=O)C(C)C)C1 [Example A172] | 1000 to 10000 nM | 10 to 100 nM | > 10000 nM | 1000 to 10000 nM | 10 to 100 nM | 1000 to 10000 nM | > 10000 nM | 1000 to 10000 nM | 10 to 100 nM | > 10000 nM
9 | CCn1c(-c2cccnc2[C@H](C)OC)c2c3cc(ccc31)-c1cccc(c1)C[C@H](NC(=O)[C@H](C(C)C)N1CC[C@@]3(CCN(C(=O)C#C[C@@H]4COCCN4C4COC4)C3)C1=O)C(=O)N1CCC[C@H](N1)C(=O)OCC(C)(C)C2 [Example A566] | 1000 to 10000 nM | 10 to 100 nM | 1000 to 10000 nM | 1000 to 10000 nM | 10 to 100 nM | 1000 to 10000 nM | 1000 to 10000 nM | 1000 to 10000 nM | 100 to 1000 nM | 1000 to 10000 nM
10 | C=CC(=O)N1CCC2(C1)CN(C(=O)N(C)[C@H](C(=O)N[C@H]1Cc3nc(cs3)-c3ccc4c(c3)c(c(-c3cccnc3[C@H](C)OC)n4CC(F)(F)F)CC(C)(C)COC(=O)[C@@H]3CCCN(N3)C1=O)C(C)C)C2 [Example A603] | 100 to 1000 nM | 10 to 100 nM | 100 to 1000 nM | 100 to 1000 nM | 10 to 100 nM | 10 to 100 nM | 10 to 100 nM | 10 to 100 nM | 10 to 100 nM | 100 to 1000 nM
11 | CCn1c(-c2cccnc2[C@H](C)OC)c2c3cc(ccc31)-c1cccc(c1)C[C@H](NC(=O)[C@H](C(C)C)N(C)C(=O)N1CCC13CN(C(=O)C#CC(C)(C)N(C)C)C3)C(=O)N1CCC[C@H](N1)C(=O)OCC(C)(C)C2 [Example A672] | 100 to 1000 nM | 10 to 100 nM | 100 to 1000 nM | 100 to 1000 nM | 10 to 100 nM | 100 to 1000 nM | 100 to 1000 nM | 100 to 1000 nM | 100 to 1000 nM | 1000 to 10000 nM
12 | C=CC(=O)N(C)[C@H]1CC1N(C)C(=O)N(C)[C@H](C(=O)N[C@H]1Cc2nc(cs2)-c2ccc3c(c2)c(c(-c2cccnc2[C@H](C)OC)n3CC)CC(C)(C)COC(=O)[C@@H]2CCCN(N2)C1=O)C(C)C (stereo partly drawn) [Example A738] | 1000 to 10000 nM | 100 to 1000 nM | 1000 to 10000 nM | 1000 to 10000 nM | 100 to 1000 nM | 100 to 1000 nM | 100 to 1000 nM | 100 to 1000 nM | 100 to 1000 nM | 1000 to 10000 nM
